Experimental data from ChEMBL document CHEMBL3886984, “Tetrahydroimidazo(1,5-D)[1,4]oxazepine derivative” (2016).

Biological target: Metabotropic glutamate receptor 2 (Homo sapiens, UniProt Q14416)
Test: [35S]GTPgammaS Binding Assay: The frozen cell membrane fraction prepared as described above was thawed before use, and the resultant was diluted with a buffer for a binding assay (final concentrations: 20 mM HEPES, 100 mM NaCl, 1 mM MgCl2, 3 uM GDP, 300 ug/mL saponin, 0.1% BSA). The compound of each example was added to a cell membrane fraction containing 1.8 to 3 ug/assay of membrane protein on a plate, followed by incubation at room temperature for 30 minutes. Thereafter, with glutamic acid (in a final concentration of 10 uM) added thereto, incubation was performed at room temperature for 15 minutes, and thereafter, [35S]GTPγS (in a final concentration of 0.8 kBq) and 588 ug WGA-SPA beads were added thereto, followed by incubation at room temperature for 1 hour. After the incubation, the plate was subjected to the centrifugal separation at 2,500 rpm and room temperature, and then, membrane cell binding radioactivity was measured with a top count. A [35S]GTPγS binding amount obtained in the presence of glutamic acid was defined as specific binding. On the basis of ratios of inhibiting the specific binding at various concentrations of the compounds of the respective examples, inhibition curves were obtained. […]
Format: functional

Chain of Metabotropic glutamate receptor 2 (Q14416 whole entry): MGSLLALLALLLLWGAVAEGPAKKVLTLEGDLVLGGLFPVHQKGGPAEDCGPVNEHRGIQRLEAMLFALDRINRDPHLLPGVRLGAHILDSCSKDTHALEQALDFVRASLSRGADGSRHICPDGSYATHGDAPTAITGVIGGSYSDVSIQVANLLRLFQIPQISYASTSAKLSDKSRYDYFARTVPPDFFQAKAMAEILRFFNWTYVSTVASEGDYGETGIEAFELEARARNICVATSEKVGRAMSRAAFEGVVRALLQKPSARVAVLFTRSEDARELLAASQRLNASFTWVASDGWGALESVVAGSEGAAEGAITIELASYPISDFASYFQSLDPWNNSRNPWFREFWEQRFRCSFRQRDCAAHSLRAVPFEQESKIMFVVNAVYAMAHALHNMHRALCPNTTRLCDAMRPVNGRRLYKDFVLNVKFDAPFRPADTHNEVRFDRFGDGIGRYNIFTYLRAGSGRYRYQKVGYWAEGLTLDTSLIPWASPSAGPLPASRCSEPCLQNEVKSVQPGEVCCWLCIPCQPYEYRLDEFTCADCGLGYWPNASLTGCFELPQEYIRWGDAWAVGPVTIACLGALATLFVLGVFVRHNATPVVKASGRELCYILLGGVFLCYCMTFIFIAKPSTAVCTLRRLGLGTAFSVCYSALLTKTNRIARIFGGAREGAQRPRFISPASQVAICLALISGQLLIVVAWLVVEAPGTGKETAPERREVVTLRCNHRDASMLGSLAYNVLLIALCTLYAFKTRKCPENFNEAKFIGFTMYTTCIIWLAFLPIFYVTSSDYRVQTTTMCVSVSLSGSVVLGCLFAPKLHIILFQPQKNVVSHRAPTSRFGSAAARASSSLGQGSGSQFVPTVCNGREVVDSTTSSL

Compound CCc1ccc(-c2nc(-c3cc(C)nc(C)c3)c3n2C[C@@H](C)OCC3)cc1OC has an IC50 of 4.2 nM.
